{"source": "paper PMC12169614", "about": "“Exploring Long Arm Amide-Linked Side Chains in the Design of Antifungal Azole Inhibitors of Sterol 14α-Demethylase (CYP51)” (Journal of Medicinal Chemistry, 2025)", "key": {"Y1": {"system": "Y1", "assay": "MIC80 determination, C. albicans clinical isolate Y1", "format": "cell-based", "details": "Candida albicans, pH 7, 24 h", "protocol": "(§1) Cells were seeded at an OD600 nm of 0.005 (1.5 × 10^4 CFU), and the plates were incubated at 30 °C with shaking at 200 rpm for 48 h for S. cerevisiae strains and 24 h for C. albicans . Cell growth was assessed by measuring the OD600 nm using a Synergy 2 multimode plate reader (BioTek Instruments, VT, USA). Each MIC80 was determined using triplicate measurements for pools of 4 clones of each strain in three separate experiments."}, "Y525 OE CaMDR1a": {"system": "Y525 OE CaMDR1a", "assay": "MIC80 determination, strain Y525", "format": "cell-based, S. cerevisiae", "details": "Saccharomyces cerevisiae, 48 h, pH 6.8", "protocol": "as §1"}, "Y2716 OE CpCYP51 Y132F": {"system": "Y2716 OE CpCYP51 Y132F", "assay": "MIC80 determination, strain Y2716", "format": "cell-based, S. cerevisiae", "details": "Saccharomyces cerevisiae", "protocol": "as §1"}, "Y2765 OE CauMDR1": {"system": "Y2765 OE CauMDR1", "assay": "MIC80 determination, strain Y2765", "format": "cell-based, S. cerevisiae", "details": "Saccharomyces cerevisiae", "protocol": "as §1"}, "MCF-10A cells": {"system": "MCF-10A cells", "assay": "Viability (CellTiter Blue) assay", "format": "cell-based, human", "details": "48 h, 10 μM to 1 pM", "protocol": "Human epithelial breast cells, MCF-10A, were routinely cultured in DMEM/F-12 (Fisher Scientific, Loughborough, UK) containing 5% heat-inactivated horse serum (ThermoFisher Scientific, UK), 20 ng/mL hEGF (Merck Life Science, Dorset, UK), 500 ng/mL hydrocortisone (Merck Life Science, Dorset, UK) and 10 μg/mL insulin (Merck Life Science, Dorset, UK) under tissue culture conditions (37 °C, 5% CO2 in a humidified incubator). Cells were passaged upon reaching confluency using 0.25% Trypsin/EDTA (Fisher Scientific, Loughborough, UK) for a maximum of 15 passages from defrosting. […].\nCells were seeded in 100 μL of complete medium per well in a black, flat-bottomed, 96-well tissue-culture-treated plate (Fisher Scientific, Loughborough, UK) at a density of 4000 cells/well and incubated under tissue culture conditions for 24 h. Cells were then treated by mixing in an additional 100 μL of drug/diluent control in complete medium to give final concentrations of 10 μM–1 pM. DMSO was used as a vehicle control, and as a positive toxic control, staurosporine was added at a final concentration of 10 μM. Cells were then incubated for 48 h under tissue culture conditions before the treatments were replaced with fresh media before performing the CellTiter Blue assay (Promega, Southampton, UK) was performed following the manufacturer's instructions. […]"}, "Y2411 Endog. ScCYP51": {"system": "Y2411 Endog. ScCYP51", "assay": "MIC80 determination, strain Y2411", "format": "cell-based, S. cerevisiae", "details": "Saccharomyces cerevisiae; strain Y2411 Endog. ScCYP51; SD pH 6.8, 30 °C, 48 h", "protocol": "as §1"}, "CaCYP51 Y132F": {"molecular_target": "CaCYP51 Y132F (Candida albicans, UniProt P10613, Y132F)", "sequence (P10613 whole entry Y132F)": "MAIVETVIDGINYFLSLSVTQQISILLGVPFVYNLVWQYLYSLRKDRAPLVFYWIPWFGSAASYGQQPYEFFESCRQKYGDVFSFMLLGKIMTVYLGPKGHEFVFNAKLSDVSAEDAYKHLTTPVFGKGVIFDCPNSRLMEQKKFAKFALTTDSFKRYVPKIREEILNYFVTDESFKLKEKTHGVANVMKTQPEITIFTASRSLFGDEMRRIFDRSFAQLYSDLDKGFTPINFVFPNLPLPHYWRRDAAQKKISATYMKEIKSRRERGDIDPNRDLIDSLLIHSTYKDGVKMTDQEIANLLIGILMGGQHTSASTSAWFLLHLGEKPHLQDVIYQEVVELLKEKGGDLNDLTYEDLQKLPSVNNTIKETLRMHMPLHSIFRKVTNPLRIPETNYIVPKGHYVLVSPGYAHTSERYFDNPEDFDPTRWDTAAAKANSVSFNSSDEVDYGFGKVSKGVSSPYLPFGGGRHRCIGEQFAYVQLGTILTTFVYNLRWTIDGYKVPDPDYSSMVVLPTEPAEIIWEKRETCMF", "details": "footnote b; ref number not given; cited from earlier work"}, "C. albicans": {"system": "C. albicans", "design": "method as in number not given", "details": "ref number not given; cited from earlier work"}, "Y2301 OE ScCYP51 Y140F": {"system": "Y2301 OE ScCYP51 Y140F", "assay": "MIC80 determination, strain Y2301", "format": "cell-based, S. cerevisiae", "details": "Saccharomyces cerevisiae, 48 h, pH 6.8", "protocol": "as §1"}, "CaCYP51 Y132H + K143R": {"molecular_target": "CaCYP51 Y132H + K143R (Candida albicans, UniProt P10613, K143R/Y132H)", "sequence (P10613 whole entry Y132H/K143R)": "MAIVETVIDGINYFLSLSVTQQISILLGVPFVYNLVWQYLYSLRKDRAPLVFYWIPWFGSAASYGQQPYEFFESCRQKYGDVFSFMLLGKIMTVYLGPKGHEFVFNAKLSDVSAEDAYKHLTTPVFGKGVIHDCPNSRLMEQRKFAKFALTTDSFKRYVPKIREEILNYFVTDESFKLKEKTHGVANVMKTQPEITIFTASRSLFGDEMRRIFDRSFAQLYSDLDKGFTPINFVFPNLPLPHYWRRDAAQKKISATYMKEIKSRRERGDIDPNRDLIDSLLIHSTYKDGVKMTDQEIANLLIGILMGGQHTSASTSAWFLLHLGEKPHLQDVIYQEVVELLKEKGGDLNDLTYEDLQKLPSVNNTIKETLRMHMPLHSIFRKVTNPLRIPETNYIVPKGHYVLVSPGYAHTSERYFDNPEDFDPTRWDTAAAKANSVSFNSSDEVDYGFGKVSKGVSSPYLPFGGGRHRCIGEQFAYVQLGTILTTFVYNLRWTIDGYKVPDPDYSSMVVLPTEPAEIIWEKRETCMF", "details": "footnote b; ref number not given; cited from earlier work"}, "[1]": {"system": "Y2746 OE AfCYP51A AfCPR AfERG6", "assay": "MIC80 determination, strain Y2746", "format": "cell-based, S. cerevisiae", "details": "Saccharomyces cerevisiae", "protocol": "as §1"}, "Y2766 OE CauCDR1": {"system": "Y2766 OE CauCDR1", "assay": "MIC80 determination, strain Y2766", "format": "cell-based, S. cerevisiae", "details": "Saccharomyces cerevisiae", "protocol": "as §1"}, "Y2513 OE ScCYP51 Y140H": {"system": "Y2513 OE ScCYP51 Y140H", "assay": "MIC80 determination, strain Y2513", "format": "cell-based, S. cerevisiae", "details": "Saccharomyces cerevisiae, 48 h, pH 6.8", "protocol": "as §1"}, "Y2649 OE CYP51 F1 RaCPR": {"system": "Y2649 OE CYP51 F1 RaCPR", "assay": "MIC80 determination, strain Y2649", "format": "cell-based, S. cerevisiae", "details": "Saccharomyces cerevisiae", "protocol": "as §1"}, "Y433 OE CgCDR1": {"system": "Y433 OE CgCDR1", "assay": "MIC80 determination, strain Y433", "format": "cell-based, S. cerevisiae", "details": "Saccharomyces cerevisiae", "protocol": "as §1"}, "Y2767 OE CauCYP51": {"system": "Y2767 OE CauCYP51", "assay": "MIC80 determination, strain Y2767", "format": "cell-based, S. cerevisiae", "details": "Saccharomyces cerevisiae", "protocol": "as §1"}, "[2]": {"system": "Y2747 OE AfCYP51B AfCPR AfERG6", "assay": "MIC80 determination, strain Y2747", "format": "cell-based, S. cerevisiae", "details": "Saccharomyces cerevisiae", "protocol": "as §1"}, "Y2768 OE CauCYP51 Y132F": {"system": "Y2768 OE CauCYP51 Y132F", "assay": "MIC80 determination, strain Y2768", "format": "cell-based, S. cerevisiae", "details": "Saccharomyces cerevisiae", "protocol": "as §1"}, "Y71 SC5314": {"system": "Y71 SC5314", "assay": "MIC80 determination, C. albicans clinical isolate Y71 SC5314", "format": "cell-based", "details": "Candida albicans; C. albicans clinical isolate Y71 SC5314; pH 7, 24 h", "protocol": "as §1"}, "Y611 FHB3": {"system": "Y611 FHB3", "assay": "MIC80 determination, C. albicans clinical isolate Y611 FHB3", "format": "cell-based", "details": "Candida albicans, 24 h, pH 7", "protocol": "as §1"}, "Y570 OE CaCDR1B": {"system": "Y570 OE CaCDR1B", "assay": "MIC80 determination, strain Y570", "format": "cell-based, S. cerevisiae", "details": "Saccharomyces cerevisiae, 48 h, pH 6.8", "protocol": "as §1"}, "Y2374 OE CgCYP51": {"system": "Y2374 OE CgCYP51", "assay": "MIC80 determination, strain Y2374", "format": "cell-based, S. cerevisiae", "details": "Saccharomyces cerevisiae", "protocol": "as §1"}, "2711 CnCYP51 OE CnCPR": {"system": "2711 CnCYP51 OE CnCPR", "assay": "MIC80 determination, strain 2711", "format": "cell-based, S. cerevisiae", "details": "Saccharomyces cerevisiae", "protocol": "as §1"}, "Y2721 OE CpCYP51": {"system": "Y2721 OE CpCYP51", "assay": "MIC80 determination, strain Y2721", "format": "cell-based, S. cerevisiae", "details": "Saccharomyces cerevisiae", "protocol": "as §1"}, "Y2300 OE ScCYP51": {"system": "Y2300 OE ScCYP51", "assay": "MIC80 determination, strain Y2300", "format": "cell-based, S. cerevisiae", "details": "Saccharomyces cerevisiae, 48 h, pH 6.8", "protocol": "as §1"}, "Y2651 OE CYP51 F5 RaCPR": {"system": "Y2651 OE CYP51 F5 RaCPR", "assay": "MIC80 determination, strain Y2651", "format": "cell-based, S. cerevisiae", "details": "Saccharomyces cerevisiae", "protocol": "as §1"}, "Y2459 OE CaCYP51 CaCpr": {"system": "Y2459 OE CaCYP51 CaCpr", "assay": "MIC80 determination, strain Y2459", "format": "cell-based, S. cerevisiae", "details": "Saccharomyces cerevisiae, 48 h, pH 6.8", "protocol": "as §1"}, "Y2769 OE CauCYP51 K143R": {"system": "Y2769 OE CauCYP51 K143R", "assay": "MIC80 determination, strain Y2769", "format": "cell-based, S. cerevisiae", "details": "Saccharomyces cerevisiae", "protocol": "as §1"}, "Y610 FHB1": {"system": "Y610 FHB1", "assay": "MIC80 determination, C. albicans clinical isolate Y610 FHB1", "format": "cell-based", "details": "Candida albicans; C. albicans clinical isolate Y610 FHB1 (weakly expresses CaCDR1); pH 7, 24 h", "protocol": "as §1"}}, "data": [{"compound": "CC[C@@H]([C@H](C)O)n1ncn(-c2ccc(N3CCN(c4ccc(OC[C@@H]5CO[C@@](Cn6cncn6)(c6ccc(F)cc6F)C5)cc4)CC3)cc2)c1=O", "note": "[PCZ, posaconazole, reference compound]", "values": [{"measurement": "MIC80", "setting": "Y1", "result": 0.07, "unit": "µM"}, {"measurement": "MIC80", "setting": "Y525 OE CaMDR1a", "result": 0.218, "unit": "µM"}, {"measurement": "MIC80", "setting": "Y2716 OE CpCYP51 Y132F", "result": "0.135 ± 0.058", "unit": "µM"}, {"measurement": "MIC80", "setting": "Y2765 OE CauMDR1", "result": "0.096 ± 0.003", "unit": "µM"}, {"measurement": "cell viability (tolerance in words)", "setting": "MCF-10A cells", "result": "no difference observed"}, {"measurement": "MIC80", "setting": "Y2411 Endog. ScCYP51", "result": "0.097 ± 0.04", "unit": "µM"}, {"measurement": "IC50", "setting": "CaCYP51 Y132F", "result": "343 ± 20", "unit": "nM"}, {"measurement": "MIC", "setting": "C. albicans", "result": "≤ 0.03", "unit": "µg/mL"}, {"measurement": "MIC80", "setting": "Y2301 OE ScCYP51 Y140F", "result": "0.191 ± 0.041", "unit": "µM"}, {"measurement": "IC50", "setting": "CaCYP51 Y132H + K143R", "result": "196 ± 7", "unit": "nM"}, {"measurement": "MIC80", "setting": "[1]", "result": "0.033 ± 0.014", "unit": "µM"}, {"measurement": "MIC80", "setting": "Y2766 OE CauCDR1", "result": "0.971 ± 0.049", "unit": "µM"}, {"measurement": "MIC80", "setting": "Y2513 OE ScCYP51 Y140H", "result": "0.147 ± 0.057", "unit": "µM"}, {"measurement": "MIC80", "setting": "Y2649 OE CYP51 F1 RaCPR", "result": 0.1, "unit": "µM"}, {"measurement": "MIC80", "setting": "Y433 OE CgCDR1", "result": 23.8, "unit": "µM"}, {"measurement": "MIC80", "setting": "Y2767 OE CauCYP51", "result": "0.196 ± 0.022", "unit": "µM"}, {"measurement": "MIC80", "setting": "[2]", "result": "0.07 ± 0.024", "unit": "µM"}, {"measurement": "MIC80", "setting": "Y2768 OE CauCYP51 Y132F", "result": "0.168 ± 0.006", "unit": "µM"}, {"measurement": "MIC80", "setting": "Y71 SC5314", "result": 0.073, "unit": "µM"}, {"measurement": "MIC80", "setting": "Y611 FHB3", "result": 0.53, "unit": "µM"}, {"measurement": "MIC80", "setting": "Y570 OE CaCDR1B", "result": "> 25", "unit": "µM"}, {"measurement": "MIC80", "setting": "Y2374 OE CgCYP51", "result": 0.332, "unit": "µM"}, {"measurement": "MIC80", "setting": "2711 CnCYP51 OE CnCPR", "result": "0.035 ± 0.015", "unit": "µM"}, {"measurement": "MIC80", "setting": "Y2721 OE CpCYP51", "result": "0.122 ± 0.037", "unit": "µM"}, {"measurement": "MIC80", "setting": "Y2300 OE ScCYP51", "result": "2 ± 0.05", "unit": "µM"}, {"measurement": "MIC80", "setting": "Y2651 OE CYP51 F5 RaCPR", "result": "0.054 ± 0.011", "unit": "µM"}, {"measurement": "MIC80", "setting": "Y2459 OE CaCYP51 CaCpr", "result": "0.22 ± 0.07", "unit": "µM"}, {"measurement": "MIC80", "setting": "Y2769 OE CauCYP51 K143R", "result": "0.117 ± 0.005", "unit": "µM"}, {"measurement": "MIC80", "setting": "Y610 FHB1", "result": "0.151 ± 0.016", "unit": "µM"}]}]}
